In experiment [1] the target is T1, Coagulation factor XII (Homo sapiens, UniProt P00748).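 Note: activated factor XIIa alpha cleaving a fluorogenic AMC peptide substrate; inhibitor potency from loss of enzyme activity.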
T1 sequence (P00748 whole entry): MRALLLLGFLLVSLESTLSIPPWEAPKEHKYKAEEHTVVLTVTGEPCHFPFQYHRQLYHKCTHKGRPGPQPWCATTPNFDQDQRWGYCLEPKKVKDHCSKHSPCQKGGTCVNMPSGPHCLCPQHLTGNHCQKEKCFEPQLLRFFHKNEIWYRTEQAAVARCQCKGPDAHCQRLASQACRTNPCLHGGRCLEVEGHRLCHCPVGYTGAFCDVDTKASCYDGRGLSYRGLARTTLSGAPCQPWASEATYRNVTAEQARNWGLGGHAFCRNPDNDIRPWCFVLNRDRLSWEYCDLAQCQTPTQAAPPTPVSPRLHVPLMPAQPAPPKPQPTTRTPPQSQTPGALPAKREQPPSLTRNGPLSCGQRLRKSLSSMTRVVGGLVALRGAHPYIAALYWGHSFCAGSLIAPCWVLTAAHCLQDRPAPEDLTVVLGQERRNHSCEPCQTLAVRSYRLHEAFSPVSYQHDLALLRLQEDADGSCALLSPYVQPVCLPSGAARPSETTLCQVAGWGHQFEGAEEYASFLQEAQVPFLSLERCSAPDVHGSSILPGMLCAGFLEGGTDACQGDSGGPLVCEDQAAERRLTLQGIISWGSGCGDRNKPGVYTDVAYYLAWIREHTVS
The experiment is classed as functional.

Experiment [2] has as its target Neurotensin receptor type 1 (Homo sapiens, UniProt P30989). The experiment is classed as functional.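 Note: Image-based confirmatory dose-response assay measuring agonist activity at NTR1; NTR1-expressing U2OS osteosarcoma cells imaged for beta-arrestin GFP spot formation; agonist potency where compounds increase beta-arrestin recruitment.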
Experiment [3] has as its target Melanocortin receptor 4 (Homo sapiens, UniProt P32245). The experiment is classed as functional, cell-based.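 Note: Cell-based assay with luminescence read-out, confirmatory dose-response testing for agonist activity of biased ligands at MC4R; human U2OS cells with tagged receptor and beta-arrestin; potency of agonists that increase receptor coupling to beta-arrestin.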
Experiment [4] has as its target T2, Voltage-gated N-type calcium channel alpha-1B subunit/Amyloid beta A4 precursor protein-binding family A member 1 (Homo sapiens, UniProt Q00975+Q02410). Format: protein assay.
In experiment [5] the target is T2, Voltage-gated N-type calcium channel alpha-1B subunit/Amyloid beta A4 precursor protein-binding family A member 1. Format: protein assay. The source holds these as a separate data set.
Experiment [6] deals with SUMO-activating enzyme (Homo sapiens, UniProt Q9UBT2). Nature of the experiment: blockers of UBC9-mediated SUMO conjugation – biochemical, AlphaScreen, SUMOylation inhibitor project, confirmation (AID 2018). The experiment is classed as functional. A general note: Alpha assays give light when donor and acceptor beads are brought close together.
Experiment [7] addresses T3, Streptokinase A (Streptococcus pyogenes serotype M1, UniProt P10520).
T3 sequence (P10520 whole entry): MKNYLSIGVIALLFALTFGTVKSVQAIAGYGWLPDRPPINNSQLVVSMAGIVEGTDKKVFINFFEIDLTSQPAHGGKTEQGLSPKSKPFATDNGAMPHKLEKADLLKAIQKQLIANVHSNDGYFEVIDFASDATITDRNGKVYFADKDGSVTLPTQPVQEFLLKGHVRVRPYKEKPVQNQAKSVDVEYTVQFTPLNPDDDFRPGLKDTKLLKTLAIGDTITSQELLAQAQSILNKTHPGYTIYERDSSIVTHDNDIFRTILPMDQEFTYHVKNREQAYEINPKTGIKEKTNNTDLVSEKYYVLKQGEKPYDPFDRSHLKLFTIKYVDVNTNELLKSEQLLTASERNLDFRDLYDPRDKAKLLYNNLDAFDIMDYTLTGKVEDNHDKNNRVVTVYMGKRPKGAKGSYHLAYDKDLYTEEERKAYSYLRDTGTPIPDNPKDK
As to the kind of experiment: viability-normalized secreted streptokinase activity reduction – plasminogen activation absorbance, OD405, dose response (AID 1914).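 Note: secreted streptokinase activity via plasminogen activation per viability signal from cell pellet.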 The experiment is classed as functional, Streptococcus pyogenes M1 GAS.

The subject of experiment [8] is Streptococcus. As to the kind of experiment: GAS UMAA2166 growth inhibition – luminescence, BacTiterGlo, counter-screen for streptokinase expression inhibitor project, dose response (AID 1915).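 Note: potency for reduction of bacterial viability or growth.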 The experiment is classed as functional, organism-based. (A counterscreen serves to expose hits that act by an unwanted route or on another target.)
Experiment [9] relates to Streptococcus sp. 'group A'. Nature of the experiment: Streptococcus pyogenes SK(-)GAS viability under kanamycin – luminescence, BacTiterGlo, confirmation, counter-screen for streptokinase expression inhibitor project, dose response (AID 1900). The experiment is classed as functional, organism-based.
Experiment [10] addresses Cytochrome P450 2C19 (Homo sapiens, UniProt P33261). As to the kind of experiment: Cytochrome panel assay with activity outcomes. Panel member name: p450-cyp2c19 Compounds with AC50 equal or less than 10 uM are considered active. The following applies: read-out: AC50. Format: functional.
The nature of experiment [11]: NIH3T3 cell viability loss – ATP luminescence, mouse fibroblasts, counter-screen, dose response (AID 2010).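 Note: cells exposed to compound for about 90 hours before reading.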 The experiment is classed as functional, cell-based.
The nature of experiment [12]: Trypanosoma cruzi growth suppression in host cells – NIH3T3 host cells, beta-gal luminescence, confirmation (AID 2044).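 Note: intracellular parasites grown in NIH/3T3 mouse fibroblasts as host cells; luminescent beta-galactosidase reporter signal from transgenic T. cruzi replicating inside host cells; inhibitors lower the luminescence signal.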 The experiment is classed as functional, cell-based.
In experiment [13] the target is Cytochrome P450 2C9 (Homo sapiens, UniProt P11712).
A short description of experiment [14]: viability of PTEN-deleted HCT116 cells – cell-based, HCT116 PTEN knockout, dose response (AID 1047).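 Note: HCT116 colon tumor cells with PTEN knocked out; cells exposed to compound for 60 hours before readout; potency for loss of cell viability measured by luminescence.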 Format: functional.
Experiment [15] is described as follows: microbe, parasite or virus in culture. The experiment is classed as functional. The note with it: Mycobacterium tuberculosis.
Experiment [16] in a line: viability of HCT116 lacking mutant beta-catenin – cell-based, human colon tumor, dose response (AID 1045).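 Note: HCT116 colon tumor cells with beta catenin knocked out; cells exposed to compound for 60 hours.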 The experiment is classed as functional.
A short description of experiment [17]: Luminescence Cell-Based Dose Retest to Confirm Inhibitors of Cancer Stem Cells. [Related pubchem assays (depositor defined):AID2717, AID2721]. Format: functional. The note with it: Homo sapiens.
For experiment [18], the system named is INS1. As to the kind of experiment: INS-1E survival protection against cytokine death – cell-based, luminescence, retest, dose response (AID 449756).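 Note: cell death triggered by IL-1 beta plus TNF-alpha plus IFN-gamma mixture; protective hits raise ATP signal compared with cytokine alone wells.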 The experiment is classed as functional. The following applies: Rattus norvegicus.
Experiment [19] concerns H9c2. As to the kind of experiment: cells. The experiment is classed as functional, cell-based. The following applies: Rattus norvegicus, H9c2, Myocardium.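 Note: confirmatory concentration-response retest of ultra-high-throughput screening hits for modulation of myocardial damage; cell death induced by hydrogen peroxide oxidative stress; compound pretreatment for 60 min then peroxide exposure for 2 h; potency is for protecting the cells against peroxide damage rather than for killing them.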
Experiment [20] concerns the target T4, Microphthalmia-associated transcription factor (Homo sapiens, UniProt O75030).
T4 sequence (O75030 whole entry): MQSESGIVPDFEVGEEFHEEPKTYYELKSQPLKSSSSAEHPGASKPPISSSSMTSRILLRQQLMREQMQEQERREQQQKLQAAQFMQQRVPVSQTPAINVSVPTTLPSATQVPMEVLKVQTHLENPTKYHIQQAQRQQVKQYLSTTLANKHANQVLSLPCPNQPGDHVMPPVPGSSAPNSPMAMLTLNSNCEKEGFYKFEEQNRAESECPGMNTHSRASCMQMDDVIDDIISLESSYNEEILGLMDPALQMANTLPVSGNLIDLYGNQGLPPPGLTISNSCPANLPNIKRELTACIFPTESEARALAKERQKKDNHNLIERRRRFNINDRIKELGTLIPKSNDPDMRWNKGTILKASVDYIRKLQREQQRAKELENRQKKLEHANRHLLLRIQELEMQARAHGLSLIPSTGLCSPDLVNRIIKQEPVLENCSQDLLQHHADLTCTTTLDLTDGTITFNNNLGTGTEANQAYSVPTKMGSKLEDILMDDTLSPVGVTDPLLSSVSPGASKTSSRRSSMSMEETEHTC
Nature of the experiment: reducers of TRPM1 reporter luminescence, concentration series – cell-based, SK-MEL-5, cherry-picked, set 3, MITF inhibitor project, dose response (AID 493073).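 Note: SK-MEL-5 melanoma cells with luciferase driven by the MITF target TRPM1 promoter.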 Format: functional.

The target of experiment [21] is Large T antigen (Simian virus 40, UniProt P03070). Format: functional, Betapolyomavirus macacae.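 Note: Confirmatory-stage PubChem screen for compounds that inhibit SV40 T antigen.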
Experiment [22] has as its target T5, Carboxy-terminal domain RNA polymerase II polypeptide A small phosphatase 1 (Homo sapiens, UniProt Q9GZU7).
T5 sequence (Q9GZU7 whole entry): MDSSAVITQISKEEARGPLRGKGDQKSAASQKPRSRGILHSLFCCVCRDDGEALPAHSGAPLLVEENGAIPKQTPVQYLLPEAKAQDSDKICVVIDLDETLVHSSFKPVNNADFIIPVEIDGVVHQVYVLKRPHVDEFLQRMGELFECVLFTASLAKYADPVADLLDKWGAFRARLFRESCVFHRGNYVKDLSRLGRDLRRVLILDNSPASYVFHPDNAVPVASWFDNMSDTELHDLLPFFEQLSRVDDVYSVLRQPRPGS
Nature of the experiment: CTDSP1 inhibitors, concentration-response, biochemical, absorbance readout, ultra-high-throughput screen actives (AID 540297). The experiment is classed as functional.

Experiment [23] concerns the target Induced myeloid leukemia cell differentiation protein Mcl-1 (Homo sapiens, UniProt Q07820). Format: functional.
Experiment [24] concerns the target T6, ORF 73 (Human herpesvirus 8, UniProt O40947).
T6 sequence (O40947 whole entry): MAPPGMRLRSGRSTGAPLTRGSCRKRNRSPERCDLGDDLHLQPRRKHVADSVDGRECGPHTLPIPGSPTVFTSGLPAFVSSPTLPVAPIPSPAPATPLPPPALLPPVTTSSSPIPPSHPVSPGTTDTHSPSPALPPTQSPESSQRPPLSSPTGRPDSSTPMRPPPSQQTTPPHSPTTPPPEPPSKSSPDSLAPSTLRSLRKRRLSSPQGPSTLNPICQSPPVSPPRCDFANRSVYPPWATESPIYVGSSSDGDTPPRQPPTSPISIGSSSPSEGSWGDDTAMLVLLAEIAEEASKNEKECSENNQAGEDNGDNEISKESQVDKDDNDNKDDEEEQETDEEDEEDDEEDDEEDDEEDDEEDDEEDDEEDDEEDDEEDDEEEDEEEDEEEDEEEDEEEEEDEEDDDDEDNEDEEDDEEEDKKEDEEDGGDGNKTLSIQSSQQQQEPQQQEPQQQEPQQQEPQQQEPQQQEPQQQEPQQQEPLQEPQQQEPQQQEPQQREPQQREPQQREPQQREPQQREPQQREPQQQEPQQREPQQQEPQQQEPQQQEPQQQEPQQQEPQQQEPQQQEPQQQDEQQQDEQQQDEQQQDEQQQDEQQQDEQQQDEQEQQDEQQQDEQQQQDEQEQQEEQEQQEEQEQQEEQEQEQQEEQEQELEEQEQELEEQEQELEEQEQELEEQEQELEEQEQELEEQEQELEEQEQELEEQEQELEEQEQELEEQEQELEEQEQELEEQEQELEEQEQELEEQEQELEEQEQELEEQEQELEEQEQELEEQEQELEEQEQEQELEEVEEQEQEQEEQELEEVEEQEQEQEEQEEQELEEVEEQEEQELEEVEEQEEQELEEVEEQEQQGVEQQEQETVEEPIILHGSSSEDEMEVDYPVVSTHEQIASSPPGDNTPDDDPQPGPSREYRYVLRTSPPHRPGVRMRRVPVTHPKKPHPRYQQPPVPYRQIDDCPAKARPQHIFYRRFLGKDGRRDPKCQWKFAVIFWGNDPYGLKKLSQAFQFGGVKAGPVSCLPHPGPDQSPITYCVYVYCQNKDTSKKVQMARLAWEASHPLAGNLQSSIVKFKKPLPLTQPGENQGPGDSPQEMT
As to the kind of experiment: KSHV LANA DNA-binding disruption – biochemical, fluorescence polarization, cherry-picked samples, dose response (AID 504725).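 Note: fluorescence polarization of a labeled DNA duplex reporting LANA DNA binding; potency is for inhibitors that block LANA binding to the DNA.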 The arrangement: species or system Human gammaherpesvirus 8. A general note: In fluorescence polarisation assays a small probe gives low polarisation when free and higher when bound to something large.

Results on 13 molecules are retold here after ChEMBL document CHEMBL1201862, “PubChem BioAssay data set” (2004).

The source made the active and inactive calls.

Neurotensin receptor type 1, sequence (P30989 whole entry): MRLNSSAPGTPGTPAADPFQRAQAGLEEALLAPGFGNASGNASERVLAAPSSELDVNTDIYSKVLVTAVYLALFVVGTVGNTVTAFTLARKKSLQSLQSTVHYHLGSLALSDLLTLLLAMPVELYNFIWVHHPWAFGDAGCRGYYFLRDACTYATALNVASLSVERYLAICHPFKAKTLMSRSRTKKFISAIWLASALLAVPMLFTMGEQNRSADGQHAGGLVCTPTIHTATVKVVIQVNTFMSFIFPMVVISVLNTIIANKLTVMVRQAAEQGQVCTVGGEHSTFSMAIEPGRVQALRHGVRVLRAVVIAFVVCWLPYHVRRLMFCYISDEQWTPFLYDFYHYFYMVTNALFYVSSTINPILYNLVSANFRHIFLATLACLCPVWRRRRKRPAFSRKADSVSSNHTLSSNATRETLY
T2 sequence (Q00975 whole entry): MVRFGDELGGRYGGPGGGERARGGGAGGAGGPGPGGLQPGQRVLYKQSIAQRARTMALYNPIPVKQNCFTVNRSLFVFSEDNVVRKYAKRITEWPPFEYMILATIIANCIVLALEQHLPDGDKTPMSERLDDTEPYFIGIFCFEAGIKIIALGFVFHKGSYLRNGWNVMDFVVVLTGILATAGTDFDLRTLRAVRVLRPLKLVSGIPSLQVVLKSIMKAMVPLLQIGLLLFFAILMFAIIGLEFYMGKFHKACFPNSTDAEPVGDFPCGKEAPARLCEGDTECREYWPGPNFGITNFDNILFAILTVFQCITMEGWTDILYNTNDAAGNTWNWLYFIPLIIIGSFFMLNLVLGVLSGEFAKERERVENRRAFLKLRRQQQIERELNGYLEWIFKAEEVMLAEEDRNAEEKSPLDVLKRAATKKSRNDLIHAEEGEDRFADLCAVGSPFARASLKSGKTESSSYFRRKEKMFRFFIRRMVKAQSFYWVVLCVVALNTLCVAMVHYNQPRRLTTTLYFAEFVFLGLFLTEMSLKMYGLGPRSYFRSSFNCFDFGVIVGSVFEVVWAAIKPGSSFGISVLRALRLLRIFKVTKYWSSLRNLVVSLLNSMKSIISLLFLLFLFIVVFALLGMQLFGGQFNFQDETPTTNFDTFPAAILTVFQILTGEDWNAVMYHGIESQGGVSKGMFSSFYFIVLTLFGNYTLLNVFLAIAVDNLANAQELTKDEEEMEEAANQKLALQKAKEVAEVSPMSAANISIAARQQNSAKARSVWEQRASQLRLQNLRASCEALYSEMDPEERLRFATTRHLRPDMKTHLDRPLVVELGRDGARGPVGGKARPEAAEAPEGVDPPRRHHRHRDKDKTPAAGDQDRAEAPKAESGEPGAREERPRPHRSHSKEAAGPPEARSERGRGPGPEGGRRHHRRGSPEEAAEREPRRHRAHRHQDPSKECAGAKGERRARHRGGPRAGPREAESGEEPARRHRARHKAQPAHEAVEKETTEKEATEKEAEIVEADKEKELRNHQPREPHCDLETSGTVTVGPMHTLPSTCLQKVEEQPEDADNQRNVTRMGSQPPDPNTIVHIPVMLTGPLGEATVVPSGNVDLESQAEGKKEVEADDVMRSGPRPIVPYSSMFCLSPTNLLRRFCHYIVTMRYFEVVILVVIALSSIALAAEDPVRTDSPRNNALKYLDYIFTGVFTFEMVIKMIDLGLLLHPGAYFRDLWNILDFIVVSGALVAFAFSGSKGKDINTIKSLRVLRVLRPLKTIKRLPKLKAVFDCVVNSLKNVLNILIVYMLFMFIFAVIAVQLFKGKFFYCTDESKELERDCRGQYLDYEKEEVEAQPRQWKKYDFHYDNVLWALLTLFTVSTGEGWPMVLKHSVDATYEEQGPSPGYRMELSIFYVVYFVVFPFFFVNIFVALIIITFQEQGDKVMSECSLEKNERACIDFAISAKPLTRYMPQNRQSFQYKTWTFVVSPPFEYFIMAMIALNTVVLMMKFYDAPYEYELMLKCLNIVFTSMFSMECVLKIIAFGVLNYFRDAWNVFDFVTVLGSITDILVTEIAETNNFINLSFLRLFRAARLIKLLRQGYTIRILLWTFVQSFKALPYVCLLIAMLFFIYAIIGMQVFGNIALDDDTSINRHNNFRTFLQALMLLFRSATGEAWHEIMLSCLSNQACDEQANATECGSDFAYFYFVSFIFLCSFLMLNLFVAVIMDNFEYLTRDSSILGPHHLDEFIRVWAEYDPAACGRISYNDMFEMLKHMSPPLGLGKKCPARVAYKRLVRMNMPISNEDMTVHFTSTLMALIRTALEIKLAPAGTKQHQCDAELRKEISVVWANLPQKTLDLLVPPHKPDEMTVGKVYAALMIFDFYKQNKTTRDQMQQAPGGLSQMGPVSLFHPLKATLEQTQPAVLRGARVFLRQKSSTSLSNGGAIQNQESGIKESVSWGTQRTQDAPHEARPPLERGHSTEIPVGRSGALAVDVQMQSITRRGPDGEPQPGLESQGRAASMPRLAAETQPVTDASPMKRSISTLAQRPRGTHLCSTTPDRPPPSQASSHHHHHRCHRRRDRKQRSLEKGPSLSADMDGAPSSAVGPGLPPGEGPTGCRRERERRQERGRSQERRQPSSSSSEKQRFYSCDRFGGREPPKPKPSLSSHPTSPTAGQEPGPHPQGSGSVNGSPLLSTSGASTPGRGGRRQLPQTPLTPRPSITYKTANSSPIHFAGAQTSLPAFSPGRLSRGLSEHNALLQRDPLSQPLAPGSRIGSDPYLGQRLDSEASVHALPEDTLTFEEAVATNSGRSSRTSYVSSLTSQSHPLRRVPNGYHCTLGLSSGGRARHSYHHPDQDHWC
T2 sequence (Q02410 whole entry): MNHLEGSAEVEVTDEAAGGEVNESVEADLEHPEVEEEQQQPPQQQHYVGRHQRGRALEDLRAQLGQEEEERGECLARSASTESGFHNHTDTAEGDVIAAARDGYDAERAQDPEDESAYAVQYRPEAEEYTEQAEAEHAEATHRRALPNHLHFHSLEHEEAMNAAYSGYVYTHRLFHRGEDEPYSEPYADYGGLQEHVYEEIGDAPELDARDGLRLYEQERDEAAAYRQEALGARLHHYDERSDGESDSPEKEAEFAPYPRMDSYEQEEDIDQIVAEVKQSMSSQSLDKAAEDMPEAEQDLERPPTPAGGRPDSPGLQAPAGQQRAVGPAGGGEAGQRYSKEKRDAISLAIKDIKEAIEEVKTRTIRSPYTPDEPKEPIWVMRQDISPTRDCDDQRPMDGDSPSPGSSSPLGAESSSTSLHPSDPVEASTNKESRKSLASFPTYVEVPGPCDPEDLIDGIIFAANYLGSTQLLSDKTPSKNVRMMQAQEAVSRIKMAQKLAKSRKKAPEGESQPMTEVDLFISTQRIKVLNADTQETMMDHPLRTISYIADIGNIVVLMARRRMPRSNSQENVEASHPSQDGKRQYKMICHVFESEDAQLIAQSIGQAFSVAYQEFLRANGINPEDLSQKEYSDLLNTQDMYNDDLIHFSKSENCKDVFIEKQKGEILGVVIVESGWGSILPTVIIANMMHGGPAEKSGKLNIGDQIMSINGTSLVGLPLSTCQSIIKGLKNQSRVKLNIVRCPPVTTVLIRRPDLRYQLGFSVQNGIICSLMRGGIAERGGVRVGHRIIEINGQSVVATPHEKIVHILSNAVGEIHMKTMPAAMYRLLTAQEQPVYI
Melanocortin receptor 4, sequence (P32245 whole entry): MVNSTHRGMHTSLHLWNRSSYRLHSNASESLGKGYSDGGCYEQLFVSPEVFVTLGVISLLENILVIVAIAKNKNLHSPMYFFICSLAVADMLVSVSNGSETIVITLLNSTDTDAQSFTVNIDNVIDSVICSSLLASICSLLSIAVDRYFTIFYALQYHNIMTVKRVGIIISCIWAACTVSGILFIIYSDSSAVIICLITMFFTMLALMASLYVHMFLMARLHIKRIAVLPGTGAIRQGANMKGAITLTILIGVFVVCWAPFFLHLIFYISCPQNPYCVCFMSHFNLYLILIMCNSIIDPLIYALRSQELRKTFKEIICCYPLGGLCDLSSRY
Induced myeloid leukemia cell differentiation protein Mcl-1, sequence (Q07820 whole entry): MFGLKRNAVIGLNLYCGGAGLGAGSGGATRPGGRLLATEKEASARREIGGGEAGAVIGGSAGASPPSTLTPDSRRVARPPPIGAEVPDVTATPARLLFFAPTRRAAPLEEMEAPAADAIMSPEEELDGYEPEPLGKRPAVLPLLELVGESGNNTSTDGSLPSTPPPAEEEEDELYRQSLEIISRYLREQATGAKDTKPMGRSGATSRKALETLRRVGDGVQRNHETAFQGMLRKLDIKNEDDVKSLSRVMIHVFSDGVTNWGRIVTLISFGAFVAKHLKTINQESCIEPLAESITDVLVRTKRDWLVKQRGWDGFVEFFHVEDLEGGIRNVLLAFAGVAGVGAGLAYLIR
Large T antigen, sequence (P03070 whole entry, the tested form may be a part): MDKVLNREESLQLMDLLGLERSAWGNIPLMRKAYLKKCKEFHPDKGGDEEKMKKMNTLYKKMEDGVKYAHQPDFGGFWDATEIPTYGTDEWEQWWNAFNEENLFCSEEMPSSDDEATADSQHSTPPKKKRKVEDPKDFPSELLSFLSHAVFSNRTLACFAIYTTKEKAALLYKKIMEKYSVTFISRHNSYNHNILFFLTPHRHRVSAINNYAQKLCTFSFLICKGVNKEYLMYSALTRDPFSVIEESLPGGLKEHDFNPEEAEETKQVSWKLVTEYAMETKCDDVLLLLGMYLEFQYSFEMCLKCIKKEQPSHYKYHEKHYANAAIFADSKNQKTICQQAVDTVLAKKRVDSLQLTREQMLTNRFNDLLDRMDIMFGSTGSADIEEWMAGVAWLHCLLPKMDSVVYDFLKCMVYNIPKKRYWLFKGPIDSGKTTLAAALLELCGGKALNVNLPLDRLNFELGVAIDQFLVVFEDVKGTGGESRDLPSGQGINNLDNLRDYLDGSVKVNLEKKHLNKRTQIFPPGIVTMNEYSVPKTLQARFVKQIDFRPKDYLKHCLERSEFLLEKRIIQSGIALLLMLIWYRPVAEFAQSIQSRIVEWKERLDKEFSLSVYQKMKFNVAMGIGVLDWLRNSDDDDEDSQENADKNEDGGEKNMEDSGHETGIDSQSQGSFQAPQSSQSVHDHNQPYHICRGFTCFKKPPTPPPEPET

Take `O=C(CSc1nnc(COc2ccccc2)n1Cc1ccco1)c1ccc(F)cc1`: the IC50 – broadly, the concentration at which inhibition is half-maximal – in experiment [1] was > 50 µM (inactive).
Regarding `Clc1ccc(C2=Nn3c(nnc3-c3cc(-c4ccccc4)n[nH]3)SC2)cc1`, the EC50 – broadly, the concentration giving half of the maximal effect – is 37.9 µM (inactive) in experiment [2] and > 89.2 µM (inactive) in experiment [3].
On to `Nc1ccc2nc(-c3ccc(-c4nc5ccc(N)cc5[nH]4)cc3)[nH]c2c1`, for which the results for the IC50 in [4], in experiment [5] and in experiment [6] were > 50 µM (inactive), 5.62 µM (active) and > 100 µM (inactive), respectively.
Take `Cc1cc(C)n(-c2nc(Nc3ccccc3C)nc(-n3nc(C)cc3C)n2)n1`: the EC50 in [2] is 7.86 µM (active); in [7], > 150 µM (not active); in experiment [8] it was 23.2 µM (active); in experiment [9], 8.77 µM (active); in experiment [11], > 60 µM (inconclusive); in [12], 1.07 µM (active). The AC50 – broadly, the concentration at which the activity in the assay is half-maximal – in [10] is 39.8 µM (inconclusive); in experiment [13], 15.8 µM (inconclusive).
On to `CCc1ccc2c(c1)C1(C(=O)N2)N2CCCC2C(C(=O)c2ccc3ccccc3c2)C12C(=O)Nc1ccccc12` (stereo unspecified), for which the EC50 in experiment [14] was 10.2 µM (active); in experiment [2], 9.78 µM (active); in experiment [16], 10.1 µM (active). In addition, in experiment [15], the CC50 was 16.2 µM (active). For the same molecule, the AC50 was 3.05 µM (active) in [17] and 6.87 µM (active) in experiment [18].
Regarding `COc1cccc(OC)c1-c1nn2c(-c3ccco3)nnc2s1`, the IC50 in experiment [1] was > 50 µM (inactive); in experiment [19], > 79 µM (inactive).
Consider `CC(C)C(OC(=O)c1cccs1)C(=O)NCc1ccc2c(c1)OCO2` (stereo unspecified), for which the IC50 in [1] is > 50 µM (inactive).
Consider `O=C1NC(=O)C(=Cc2ccc(-c3cc(Cl)ccc3[N+](=O)[O-])o2)C(=O)N1`, for which the IC50 in experiment [4] is > 50 µM (inactive); in experiment [5] it was 4.58 µM (active); in [21], 48.3 µM (active). For the same molecule, the AC50 in [20] was 17.2 µM (active).
On to `O=C(O)CCn1cc(C=C2C(=O)NC(=S)NC2=O)c(-c2cc3ccccc3oc2=O)n1`, for which the IC50 was 6.27 µM (active) in experiment [4], 13 µM (active) in experiment [22], 17.8 µM (active) in experiment [5] and 3.42 µM (active) in [23].
As to `CC(C)c1ccc(NC(=O)c2ccc(Br)o2)cc1`, the IC50 in [1] is > 50 µM (inactive).
As for `Cc1cc2c(c(=O)n1C)C(Cc1ccccc1)C(C#N)=C(N)O2` (stereo unspecified), the IC50 in [1] is > 50 µM (inactive).
On to `CCOC(=O)C1Nc2ccccc2C2C(O)C(O)CC12` (stereo unspecified), for which the AC50 in experiment [24] is > 350 µM (inactive).
In the case of `O=C(N/N=C/c1coc2ccccc2c1=O)c1cc(O)cc(O)c1`, the IC50 is > 50 µM (inactive) in experiment [4] and 7.54 µM (active) in experiment [5].
